Results reported in patent publication US20150018340A1, “PIPECOLATE-DIKETOAMIDES FOR TREATMENT OF PSYCHIATRIC DISORDERS” (MAX-PLANCK-GESELLSCHAFT ZUR FÖRDERUNG DER WISSENSCHAFTEN …, priority 2011, published 2015).
Like-named read-outs stand apart in the source and are kept apart here.

Columns and labels:
FKBP51 (FK1 domain) = molecular target: T1, FKBP51 (FK1 domain) (Homo sapiens, UniProt Q13451); experiment: Fluorescence polarization assay, binding affinity to FKBP51 (FK1 domain); conditions: fluorescence polarization assay using tracer 2b, read-out: FKBP51FK1 IC50
T1 sequence (Q13451 42-130 limits assumed): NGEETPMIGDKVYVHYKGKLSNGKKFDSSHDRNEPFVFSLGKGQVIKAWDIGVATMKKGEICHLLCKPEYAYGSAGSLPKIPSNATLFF
Protocol: (§1) The binding affinites for FKBPs were determined as described in Kozany et al., ChemBioChem 10, 8, 2009, 1402-1410 using tracer 2b.
(§2) Table 1: Chemical compounds according to formula (I) used in fluorescence polarization assay: Binding affinity to FKBP51 (FK1 domain) and FKBP52 (FK1 domain)

FKBP52 (FK1 domain) = molecular target: T2, FKBP52 (FK1 domain) (Homo sapiens, UniProt Q02790); experiment: Fluorescence polarization assay, binding affinity to FKBP52 (FK1 domain); conditions: fluorescence polarization assay using tracer 2b, read-out: FKBP52FK1 IC50
T2 sequence (Q02790 50-138 limits assumed): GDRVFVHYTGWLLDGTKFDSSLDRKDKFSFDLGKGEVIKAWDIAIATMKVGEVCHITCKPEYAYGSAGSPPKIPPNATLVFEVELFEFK
Protocol: as §1, §2

`COc1ccc(CC[C@@H](OC(=O)[C@@H]2CCCCN2C(=O)C(=O)[C@]2(O)CCCC[C@@H]2C)c2cccc(OCC(=O)O)c2)cc1OC` [Compound 6a] showed an IC50 (FKBP51 (FK1 domain)) of 4.18 ± 0.15 µM and an IC50 (FKBP52 (FK1 domain)) of 2.2 ± 0.13 µM.
With `COc1ccc(CC[C@@H](OC(=O)[C@@H]2CCCCN2C(=O)C(=O)C2CCCCC2)c2cccc(OCC(=O)O)c2)cc1OC` [Compound 8] the IC50 (FKBP51 (FK1 domain)) was 15.2 ± 1.04 µM and the IC50 (FKBP52 (FK1 domain)) was 9.53 ± 1.35 µM.
Compound `CC[C@@H]1CCCC[C@@]1(O)C(=O)C(=O)N1CCCC[C@H]1C(=O)O[C@H](CCc1ccc(OC)c(OC)c1)c1cccc(OCC(=O)O)c1` [Compound 3, 2-(3-((R)-3-(3,4-dimethoxyphenyl)-1-((S)-1-(2-((1S,2R)-2-ethyl-1-hydroxy-cyclohexyl)-2-oxoacetyl)piperidine-2-carbonyloxy)propyl)phenoxy) acetic acid] has an IC50 (FKBP52 (FK1 domain); listed as 3*) of 9.5 ± 1.3 µM.
`CCC(C)(C)C(=O)C(=O)N1CCC[C@H]1C(=O)O[C@H](CCc1ccc(OC)c(OC)c1)c1cccc(OCC(=O)O)c1` [Reference Example 4, 2-(3-((R)-3-(3,4-dimethoxyphenyl)-1-((S)-1-(3,3-dimethyl-2-oxopentanoyl)-pyrrolidine-2-carbonyloxy)propyl)phenoxy)acetic acid, reference compound] showed an IC50 (FKBP51 (FK1 domain)) of 51.5 ± 31.9 µM and an IC50 (FKBP52 (FK1 domain)) of 41.6 ± 15.8 µM.
`COc1ccc(CC[C@@H](OC(=O)[C@@H]2CCCCN2C(=O)C(=O)[C@]2(O)CCCC[C@H]2C)c2cccc(OCC(=O)O)c2)cc1OC` [Compound 1, 2-(3-((R)-3-(3,4-dimethoxyphenyl)-1-((S)-1-(2-((1S,2R)-1-hydroxy-2-methylcyclohexyl)-2-oxoacetyl)piperidine-2-carbonyloxy)propyl)phenoxy) acetic acid] was tested, and the IC50 (FKBP51 (FK1 domain); listed as 1*) was 4.2 ± 0.11 µM and the IC50 (FKBP52 (FK1 domain); listed as 1*) was 2.13 ± 0.21 µM.
`COc1ccc(CC[C@@H](OC(=O)[C@@H]2CCCCN2C(=O)C(=O)[C@@]2(O)CCCC[C@H]2C)c2cccc(OCC(=O)O)c2)cc1OC` [Compound 6b] was tested, and the IC50 (FKBP51 (FK1 domain)) was 4.96 ± 0.25 µM and the IC50 (FKBP52 (FK1 domain)) was 2.64 ± 0.25 µM.
Compound `COc1ccc(CC[C@@H](OC(=O)[C@@H]2CCCCN2C(=O)C(=O)C2(O)CCCCC2C)c2cccc(OCC(=O)O)c2)cc1OC` (stereo in doubt) [Compound 6, 2-(3-((R)-3-(3,4-dimethoxyphenyl)-1-((S)-1-(2-((1R,2R)-1-hydroxy-2-methylcyclohexyl)-2-oxoacetyl)piperidine-2-carbonyloxy)propyl)phenoxy) acetic acid] has an IC50 (FKBP51 (FK1 domain)) of 4.13 ± 0.2 µM and an IC50 (FKBP52 (FK1 domain)) of 2.64 ± 0.19 µM.
`CCC1CCCCC1(O)C(=O)C(=O)N1CCCC[C@H]1C(=O)O[C@H](CCc1ccc(OC)c(OC)c1)c1cccc(OCC(=O)O)c1` (stereo in doubt) [Compound 7, 2-(3-((R)-3-(3,4-dimethoxyphenyl)-1-((S)-1-(2-((1R,2R)-2-ethyl-1-hydroxycyclohexyl)-2-oxoacetyl)piperidine-2-carbonyloxy)propyl)phenoxy) acetic acid] was tested, and the IC50 (FKBP52 (FK1 domain)) was 9.77 ± 1.48 µM.
Work on `CCC(C)(C)C(=O)C(=O)N1CC=CC[C@H]1C(=O)O[C@H](CCc1ccc(OC)c(OC)c1)c1cccc(OCC(=O)O)c1` [Reference Example 5, 2-(3-((R)-3-(3,4-dimethoxyphenyl)-1-((S)-1-(3,3-dimethyl-2-oxopentanoyl)-1,2,3,6-tetrahydropyridine-2-carbonyloxy)propyl)phenoxy)acetic acid, reference compound] yielded an IC50 (FKBP51 (FK1 domain)) of 32.7 ± 12.3 µM and an IC50 (FKBP52 (FK1 domain)) of 49.2 ± 24.6 µM.
Compound `COc1ccc(CC[C@@H](OC(=O)[C@@H]2CCCCN2C(=O)C(=O)[C@]2(O)CCCC[C@H]2C)c2cccc(OCCN3CCOCC3)c2)cc1OC` [Compound 2, (S)—((R)-3-(3,4-dimethoxyphenyl)-1-(3-(2-morpholinoethoxy)phenyl)propyl) 1-(2-((1S,2R)-1-hydroxy-2-methylcyclohexyl)-2-oxoacetyl)piperidine-2-carboxylate] has an IC50 (FKBP51 (FK1 domain)) of 2.02 ± 0.14 µM and an IC50 (FKBP52 (FK1 domain)) of 0.89 ± 0.06 µM.
Work on `COc1ccc(CC[C@@H](OC(=O)[C@@H]2CCCCN2C(=O)C(=O)[C@]2(O)CCCC[C@H]2C)c2cccc(OCC(=O)O)c2)cc1OC` [Compound 1a] yielded an IC50 (FKBP51 (FK1 domain)) of 4.27 ± 0.19 µM and an IC50 (FKBP52 (FK1 domain)) of 2.44 ± 0.17 µM.
`CC[C@H]1CCCC[C@]1(O)C(=O)C(=O)N1CCCC[C@H]1C(=O)O[C@H](CCc1ccc(OC)c(OC)c1)c1cccc(OCC(=O)O)c1` [Compound 3b] showed an IC50 (FKBP52 (FK1 domain)) of 3.5 ± 0.6 µM.
Work on `COc1ccc(CC[C@@H](OC(=O)[C@@H]2CCCCN2C(=O)C(=O)[C@@]2(O)CCCC[C@@H]2C)c2cccc(OCC(=O)O)c2)cc1OC` [Compound 1b] yielded an IC50 (FKBP51 (FK1 domain)) of 4.54 ± 0.24 µM and an IC50 (FKBP52 (FK1 domain)) of 2.88 ± 0.21 µM.
Compound `COc1ccc(CC[C@@H](OC(=O)[C@@H]2CCCCN2C(=O)C(=O)C(C)(C)C)c2cccc(OCC(=O)O)c2)cc1OC` [Reference Example 6, reference compound] has an IC50 (FKBP51 (FK1 domain)) of 38.4 ± 16.5 µM and an IC50 (FKBP52 (FK1 domain)) of 46.2 ± 18.8 µM.
With `O=C(C(=O)N1CCCCC1C(=O)OCCCc1ccccc1)c1ccccc1` (stereo not drawn) [Reference Example 7, reference compound] the IC50 (FKBP51 (FK1 domain)) was > 100 µM and the IC50 (FKBP52 (FK1 domain)) was > 100 µM.
`COc1ccc(CCOC(=O)C2CCCCN2C(=O)C(=O)[C@]2(O)CCCC[C@H]2C)cc1OC` (stereo partly drawn) [Reference Example 1*, 3,4-dimethoxyphenethyl 1-(2-((1S,2R)-1-hydroxy-2-methyl-cyclohexyl)-2-oxoacetyl)piperidine-2-carboxylate, reference compound] was tested, and the IC50 (FKBP51 (FK1 domain)) was > 100 µM and the IC50 (FKBP52 (FK1 domain)) was > 100 µM.
For `COc1ccc(CC[C@@H](OC(=O)[C@@H]2CCCCN2C(=O)C(=O)c2cc(Cl)cc(Cl)c2)c2cccc(OCC(=O)O)c2)cc1OC` [Compound 11, 2-(3-((R)-3-(3,4-dimethoxyphenyl)-1-((S)-1-(2-oxo-2-(3,5-dichloro-phenyl)acetyl)piperidine-2-carbonyloxy)propyl)phenoxy)acetic acid], the IC50 (FKBP51 (FK1 domain)) was 4.1 ± 0.8 µM and the IC50 (FKBP52 (FK1 domain)) was 5.6 ± 1.1 µM.
`CC[C@@H]1CCCC[C@@]1(O)C(=O)C(=O)N1CCCC[C@H]1C(=O)O[C@H](CCc1ccc(OC)c(OC)c1)c1cccc(OCCN2CCOCC2)c1` [Compound 4, (S)—((R)-3-(3,4-dimethoxyphenyl)-1-(3-(2-morpholinoethoxy)phenyl)propyl)1-(2-((1S,2R)-2-ethyl-1-hydroxycyclohexyl)-2-oxoacetyl)piperidine-2-carboxylate] gave an IC50 (FKBP51 (FK1 domain)) of 9.66 ± 0.83 µM and an IC50 (FKBP52 (FK1 domain)) of 3.72 ± 1.02 µM.
With `COc1ccc(CC[C@@H](OC(=O)[C@@H]2CCCCN2C(=O)C(=O)c2ccc(Oc3ccccc3)cc2)c2cccc(OCC(=O)O)c2)cc1OC` [Compound 10, 2-(3-((R)-3-(3,4-dimethoxyphenyl)-1-((S)-1-(2-oxo-2-(4-phenoxy-phenyl)acetyl)piperidine-2-carbonyloxy)propyl)phenoxy)acetic acid] the IC50 (FKBP51 (FK1 domain)) was 2.83 ± 0.21 µM and the IC50 (FKBP52 (FK1 domain)) was 1.71 ± 0.35 µM.
For `CC(C)C(C)(C)C(=O)C(=O)N1CCCC[C@H]1C(=O)O[C@H](CCc1ccccc1)c1ccccc1` [Reference Example 9, reference compound], the IC50 (FKBP51 (FK1 domain)) was 55.6 ± 13.1 µM and the IC50 (FKBP52 (FK1 domain)) was 61.2 ± 23.7 µM.
With `CCC(C)(C)C(=O)C(=O)N1CCCC1C(=O)OC(CCc1ccccc1)c1ccccc1` (stereo not drawn) [Reference Example 8, reference compound] the IC50 (FKBP51 (FK1 domain)) was 89.5 ± 21.7 µM and the IC50 (FKBP52 (FK1 domain)) was > 100 µM.
`COc1ccc(CC[C@@H](OC(=O)[C@@H]2CCCCN2C(=O)C(=O)[C@]2(O)CCCC[C@H]2CO)c2cccc(OCC(=O)O)c2)cc1OC` [Compound 5, 2-(3-((R)-3-(3,4-dimethoxyphenyl)-1-((S)-1-(2-((1S,2S)-1-hydroxy-2-(hydroxylmethyl)cyclohexyl)-2-oxoacetyl)piperidine-2-carbonyloxy)propyl)phenoxy)acetic acid] was tested, and the IC50 (FKBP51 (FK1 domain)) was 8.5 ± 0.6 µM and the IC50 (FKBP52 (FK1 domain)) was 6.2 ± 0.5 µM.
`COc1ccc(OCCOC(=O)C2CCCCN2C(=O)C(=O)[C@]2(O)CCCC[C@H]2C)cc1OC` (stereo partly drawn) [Reference Example 2*, 2-(3,4-dimethoxyphenoxy)ethyl 1-(2-((1S,2R)-1-hydroxy-2-methyl-cyclohexyl)-2-oxoacetyl)piperidine-2-carboxylate, reference compound] gave an IC50 (FKBP51 (FK1 domain)) of 29.4 ± 8.5 µM and an IC50 (FKBP52 (FK1 domain)) of 11.7 ± 6.4 µM.
`CC[C@@H]1CCCC[C@@]1(O)C(=O)C(=O)N1CCCCC1C(=O)OCCOc1ccc(OC)c(OC)c1` (stereo partly drawn) [Reference Example 3*, 2-(3,4-dimethoxyphenoxy)ethyl 1-(2-((1S,2R)-2-ethyl-1-hydroxy-cyclohexyl)-2-oxoacetyl) piperidine-2-carboxylate, reference compound] was tested, and the IC50 (FKBP51 (FK1 domain)) was > 100 µM and the IC50 (FKBP52 (FK1 domain)) was > 100 µM.
With `CC[C@@H]1CCCC[C@@]1(O)C(=O)C(=O)N1CCCC[C@H]1C(=O)O[C@H](CCc1ccc(OC)c(OC)c1)c1cccc(OCC(=O)O)c1` [Compound 3a] the IC50 (FKBP52 (FK1 domain)) was 4.2 ± 0.3 µM.
`COc1ccc(CC[C@@H](OC(=O)[C@@H]2CCCCN2C(=O)C(=O)c2cc(OC)c(OC)c(OC)c2)c2cccc(OCC(=O)O)c2)cc1OC` [Compound 9, 2-(3-((R)-3-(3,4-dimethoxyphenyl)-1-((S)-1-(2-oxo-2-(3,4,5-tri-methoxyphenyl)acetyl)piperidine-2-carbonyloxy)propyl)phenoxy)acetic acid] was tested, and the IC50 (FKBP51 (FK1 domain)) was 19.3 ± 6.6 µM and the IC50 (FKBP52 (FK1 domain)) was 11.6 ± 1.6 µM.
